Source: patent US20140262319A1, “ENVIRONMENTALLY FRIENDLY PERMANENT QUATERNARIES OF POLYAMINES AND THEIR USE AS CLAY STABILIZERS AND METHODS FOR MAKING AND USING SAME” (CLEARWATER INTERNATIONAL, LLC, priority 2013, published 2014)

Tested on: Fathead Minnow (pimephales promelas)
Assay: Acute toxicity survival test
Type: in vivo
Conditions: Flathead Minnows
Protocol: As a consequence, the “definitive” test gave a more precise LC50 value. LC50 was determined using a log-normal transformation coupled with linear regression between the bracketing no observed effect concentration (NOEC) and lowest observed effect concentration (LOEC). Both the range finding and definitive tests were run on Example 4 and Example 5. Only the ranging finding test was run for TMAC and Example 3.

| SMILES | toxicity to minnows compared with TMAC |
| --- | --- |
| OCC[N+](CCO)(CCO)Cc1ccccc1.[Cl-] [Example 4] | much less toxic than TMAC |
| CCOS(=O)(=O)[O-].CC[N+](CCO)(CCO)CCO [Example 5] | much less toxic than TMAC |
